Test results reported in US5840684A, “Glycopeptide antibiotic derivatives” (Eli Lilly and Company, priority 1995, dated 1998).
Converted amounts (≈) assume the structure as drawn.

Assays:
[1] = tested on: vancomycin-susceptible enterococci; test: broth micro-dilution, mean geometric MIC; assay type: cell-based, Enterococcus faecium and Enterococcus faecalis; settings: enterococci, 24-hour incubation
[2] = tested on: vancomycin-resistant enterococci; test: broth micro-dilution, mean geometric MIC; assay type: cell-based, Enterococcus faecium and Enterococcus faecalis; settings: enterococci, 24-hour incubation
[3] = tested on: Staphylococcus haemolyticus 415; test: broth micro-dilution MIC; assay type: cell-based
Description: (§1) The formula I compounds have in vitro and in vivo activity against Gram-positive pathogenic bacteria. The MIC's were determined using a standard broth micro-dilution assay.

[4] = tested on: Staphylococcus haemolyticus 105; test: broth micro-dilution MIC; assay type: cell-based
Description: as §1

[5] = tested on: Staphylococcus epidermidis 270; test: broth micro-dilution MIC; assay type: cell-based
Description: as §1

[6] = tested on: Haemophilus influenzae RD; test: broth micro-dilution MIC; assay type: cell-based; settings: Haemophilus influenzae RD
Description: as §1

[7] = tested on: Leuconostoc mesenteroides; test: agar dilution MIC, lactic acid bacteria; assay type: cell-based; settings: Leuconostoc mesenteroides (mean of 4), brain-heart infusion agar
Stapylococcus aureus = test: mouse protection, experimentally-induced infection; assay type: in vivo; settings: mice infected with Stapylococcus aureus, two doses
[8] = tested on: Staphylococcus aureus SA1199A; test: broth micro-dilution MIC; assay type: cell-based
Description: (§2) The MIC's were determined using a standard broth micro-dilution assay.

[9] = tested on: Staphylococcus aureus X778; test: broth micro-dilution MIC; assay type: cell-based
Description: as §2

[10] = tested on: Staphylococcus aureus 446; test: broth micro-dilution MIC; assay type: cell-based
Description: as §2

[11] = tested on: Staphylococcus aureus X400; test: broth micro-dilution MIC; assay type: cell-based
Description: as §2

[12] = tested on: Staphylococcus aureus SA1199; test: broth micro-dilution MIC; assay type: cell-based
Description: as §2

[13] = tested on: Staphylococcus aureus 489; test: broth micro-dilution MIC; assay type: cell-based
Description: as §2

[14] = tested on: Entercoccus faecium 180-1; test: broth micro-dilution MIC; assay type: cell-based
Description: as §2

[15] = tested on: Staphylococcus aureus 447; test: broth micro-dilution MIC; assay type: cell-based
Description: as §2

Entercoccus faecium 276 = test: broth micro-dilution MIC; assay type: cell-based
Description: as §2

Leuconostoc citreum = test: agar dilution MIC, lactic acid bacteria; assay type: cell-based; settings: brain-heart infusion agar
Streptococcus pneumoniae = test: mouse protection, experimentally-induced infection; assay type: in vivo; settings: mice infected with Streptococcus pneumoniae, two doses
Pediococcus pentosaceus = test: agar dilution MIC, lactic acid bacteria; assay type: cell-based; settings: Pediococcus pentosaceus (mean of 2), brain-heart infusion agar
[16] = tested on: Staphylococcus aureus S13E; assay type: cell-based
Description: as §2

Pediococcus acidilacti = test: agar dilution MIC, lactic acid bacteria; assay type: cell-based; settings: Pediococcus acidilacti (mean of 10), brain-heart infusion agar
Lactobacillus confusus = test: agar dilution MIC, lactic acid bacteria; assay type: cell-based; settings: Lactobacillus confusus, brain-heart infusion agar
Leuconostoc lactis = test: agar dilution MIC, lactic acid bacteria; assay type: cell-based; settings: Leuconostoc lactis (mean of 2), brain-heart infusion agar
Streptococcus pyogenes = test: mouse protection, experimentally-induced infection; assay type: in vivo; settings: mice infected with Streptococcus pyogenes, two doses
[17] = tested on: Leuconostoc pseudomesenteroides; test: agar dilution MIC, lactic acid bacteria; assay type: cell-based; settings: brain-heart infusion agar
Entercoccus faecium 180 = test: broth micro-dilution MIC; assay type: cell-based; settings: Entercoccus faecium 180
Description: as §1

Entercoccus faecium 2041 = test: broth micro-dilution MIC; assay type: cell-based; settings: Entercoccus faecium 2041
Description: as §1

Escherichia coli EC14 = test: broth micro-dilution MIC; assay type: cell-based
Description: as §1

[18] = tested on: Enterococcus gallinarum 245; test: broth micro-dilution MIC; assay type: cell-based; settings: Enterococcus gallinarum 245
Description: as §1

[19] = tested on: Streptococcus pneumoniae P1; test: broth micro-dilution MIC; assay type: cell-based
Description: as §1

[20] = tested on: Streptococcus pyogenes C203; test: broth micro-dilution MIC; assay type: cell-based
Description: as §2

[21] = tested on: Staphylococcus aureus SA1199B; assay type: cell-based
Description: as §2

| Compound | mean geometric MIC, Vancomycin Sensitive Strains [1] | mean geometric MIC, Vancomycin Resistant Strains [2] | MIC [3] | MIC [4] | MIC [7] | ED50 (Stapylococcus aureus) | MIC [8] | MIC [9] | MIC [11] | MIC [12] | MIC [14] | MIC (Entercoccus faecium 276) | MIC (Leuconostoc citreum) | ED50 (Streptococcus pneumoniae) | MIC (Pediococcus pentosaceus) | MIC (Pediococcus acidilacti) | MIC (Lactobacillus confusus) | MIC (Leuconostoc lactis) | ED50 (Streptococcus pyogenes) | MIC [17] | also measured |
| --- | --- | --- | --- | --- | --- | --- | --- | --- | --- | --- | --- | --- | --- | --- | --- | --- | --- | --- | --- | --- | --- |
| CNC(CC(C)C)C(=O)NC1C(=O)NC(CC(N)=O)C(=O)NC2C(=O)NC3C(=O)NC(C(=O)NC(C(=O)O)c4cc(O)cc(O)c4-c4cc3ccc4O)C(OC3CC(C)(N)C(O)C(C)O3)c3ccc(c(Cl)c3)Oc3cc2cc(c3OC2OC(CO)C(O)C(O)C2OC2CC(C)(NCc3ccc4c(c3)Cc3ccccc3-4)C(O)C(C)O2)Oc2ccc(cc2Cl)C1O (stereo not shown) [Compound 32] | 0.089 µg/mL | 0.50 µg/mL | 4 µg/mL (≈ 2.26 µM) | 4 µg/mL (≈ 2.26 µM) | 16 µg/mL (≈ 9.04 µM) | 0.055 mg/kg/2 | ≤ 0.06 µg/mL | 0.5 µg/mL (≈ 0.282 µM) | 0.5 µg/mL (≈ 0.282 µM) | 1 µg/mL (≈ 0.565 µM) | ≤ 0.06 µg/mL | 0.125 µg/mL (≈ 0.0706 µM) | 64 µg/mL (≈ 36.1 µM) | 0.039 mg/kg/2 | 16 µg/mL (≈ 9.04 µM) | 12.1 µg/mL (≈ 6.83 µM) | 16 µg/mL (≈ 9.04 µM) | 16 µg/mL (≈ 9.04 µM) | 0.034 mg/kg/2 |  | MIC [5]: 1 µg/mL (≈ 0.565 µM); MIC [6]: > 64 µg/mL; MIC [10]: 1 µg/mL (≈ 0.565 µM); MIC [13]: 1 µg/mL (≈ 0.565 µM); MIC [15]: 0.5 µg/mL (≈ 0.282 µM); MIC [16]: 1 µg/mL (≈ 0.565 µM) |
| CNC(CC(C)C)C(=O)NC1C(=O)NC(CC(N)=O)C(=O)NC2C(=O)NC3C(=O)NC(C(=O)NC(C(=O)O)c4cc(O)cc(O)c4-c4cc3ccc4O)C(OC3CC(C)(N)C(O)C(C)O3)c3ccc(c(Cl)c3)Oc3cc2cc(c3OC2OC(CO)C(O)C(O)C2OC2CC(C)(NCc3ccc(SC)cc3)C(O)C(C)O2)Oc2ccc(cc2Cl)C1O (stereo not shown) [Compound 41] | 0.21 µg/mL | 0.84 µg/mL |  |  | 91 µg/mL (≈ 52.6 µM) |  |  |  |  |  |  |  | > 128 µg/mL | 0.087 mg/kg/2 | 91 µg/mL (≈ 52.6 µM) | 71 µg/mL (≈ 41.1 µM) | 64 µg/mL (≈ 37 µM) | 91 µg/mL (≈ 52.6 µM) | 0.082 mg/kg/2 | > 128 µg/mL |  |
| CNC(CC(C)C)C(=O)NC1C(=O)NC(CC(N)=O)C(=O)NC2C(=O)NC3C(=O)NC(C(=O)NC(C(=O)O)c4cc(O)cc(O)c4-c4cc3ccc4O)C(OC3CC(C)(N)C(O)C(C)O3)c3ccc(c(Cl)c3)Oc3cc2cc(c3OC2OC(CO)C(O)C(O)C2OC2CC(C)(NCc3cccc(Oc4ccccc4)c3)C(O)C(C)O2)Oc2ccc(cc2Cl)C1O (stereo not shown) [Compound 49] | 0.083 µg/mL | 0.71 µg/mL |  |  | 64 µg/mL (≈ 36.1 µM) | 0.053 mg/kg/2 |  |  |  |  |  |  | 128 µg/mL (≈ 72.1 µM) | < 0.031 mg/kg/2 | 64 µg/mL (≈ 36.1 µM) | 55 µg/mL (≈ 31 µM) | 64 µg/mL (≈ 36.1 µM) | 64 µg/mL (≈ 36.1 µM) | 0.045 mg/kg/2 | 128 µg/mL (≈ 72.1 µM) |  |
| CNC(CC(C)C)C(=O)NC1C(=O)NC(CC(N)=O)C(=O)NC2C(=O)NC3C(=O)NC(C(=O)NC(C(=O)O)c4cc(O)cc(O)c4-c4cc3ccc4O)C(OC3CC(C)(N)C(O)C(C)O3)c3ccc(c(Cl)c3)Oc3cc2cc(c3OC2OC(CO)C(O)C(O)C2OC2CC(C)(NCc3ccc(Cc4ccccc4)cc3)C(O)C(C)O2)Oc2ccc(cc2Cl)C1O (stereo not shown) [Compound 50] | 0.054 µg/mL | 0.12 µg/mL |  |  | 64 µg/mL (≈ 36.1 µM) | 0.1 mg/kg/2 |  |  |  |  |  |  | 128 µg/mL (≈ 72.2 µM) | 0.057 mg/kg/2 | 64 µg/mL (≈ 36.1 µM) | 51 µg/mL (≈ 28.8 µM) | 64 µg/mL (≈ 36.1 µM) | 64 µg/mL (≈ 36.1 µM) | 0.047 mg/kg/2 | 128 µg/mL (≈ 72.2 µM) |  |
| CNC(CC(C)C)C(=O)NC1C(=O)NC(CC(N)=O)C(=O)NC2C(=O)NC3C(=O)NC(C(=O)NC(C(=O)O)c4cc(O)cc(O)c4-c4cc3ccc4O)C(OC3CC(C)(N)C(O)C(C)O3)c3ccc(c(Cl)c3)Oc3cc2cc(c3OC2OC(CO)C(O)C(O)C2OC2CC(C)(NCc3ccc(OC4CCCCC4)cc3)C(O)C(C)O2)Oc2ccc(cc2Cl)C1O (stereo not shown) [Compound 124] | 0.047 µg/mL | 0.84 µg/mL | 1 µg/mL (≈ 0.562 µM) | 2 µg/mL (≈ 1.12 µM) | 16 µg/mL (≈ 8.99 µM) |  | ≤ 0.06 µg/mL | 0.5 µg/mL (≈ 0.281 µM) | 1 µg/mL (≈ 0.562 µM) | 1 µg/mL (≈ 0.562 µM) | ≤ 0.06 µg/mL | ≤ 0.06 µg/mL | 64 µg/mL (≈ 35.9 µM) | 0.041 mg/kg/2 | 16 µg/mL (≈ 8.99 µM) | 20 µg/mL (≈ 11.2 µM) | 16 µg/mL (≈ 8.99 µM) | 16 µg/mL (≈ 8.99 µM) | 0.092 mg/kg/2 | 64 µg/mL (≈ 35.9 µM) | MIC (Entercoccus faecium 180): ≤ 0.06 µg/mL; MIC (Entercoccus faecium 2041): ≤ 0.06 µg/mL; MIC (Escherichia coli EC14): > 64 µg/mL; MIC [18]: 1 µg/mL (≈ 0.562 µM); MIC [19]: ≤ 0.06 µg/mL; MIC [6]: 16 µg/mL (≈ 8.99 µM); MIC [10]: 4 µg/mL (≈ 2.25 µM); MIC [20]: ≤ 0.06 µg/mL; MIC [21]: ≤ 0.06 µg/mL; MIC [16]: ≤ 0.06 µg/mL |
| CN[C@H](CC(C)C)C(=O)N[C@H]1C(=O)N[C@@H](CC(N)=O)C(=O)N[C@H]2C(=O)N[C@H]3C(=O)N[C@H](C(=O)N[C@H](C(=O)O)c4cc(O)cc(O)c4-c4cc3ccc4O)[C@H](O[C@H]3C[C@](C)(N)[C@@H](O)[C@H](C)O3)c3ccc(c(Cl)c3)Oc3cc2cc(c3O[C@@H]2O[C@H](CO)[C@@H](O)[C@H](O)[C@H]2O[C@H]2C[C@](C)(N)[C@@H](O)[C@H](C)O2)Oc2ccc(cc2Cl)[C@H]1O [Compound A82846B, A82846B, reference compound] | 0.22 µg/mL | 29 µg/mL | 4 µg/mL (≈ 2.51 µM) | 1 µg/mL (≈ 0.628 µM) | > 256 µg/mL | 0.25 mg/kg/2 | ≤ .06 µg/mL | 0.125 µg/mL (≈ 0.0785 µM) | 0.125 µg/mL (≈ 0.0785 µM) | 0.125 µg/mL (≈ 0.0785 µM) | 0.125 µg/mL (≈ 0.0785 µM) | 0.125 µg/mL (≈ 0.0785 µM) | > 256 µg/mL | 0.18 mg/kg/2 | > 256 µg/mL | 141 µg/mL (≈ 88.5 µM) | > 256 µg/mL |  | 0.12 mg/kg/2 | > 256 µg/mL | MIC (Entercoccus faecium 180): 8 µg/mL (≈ 5.02 µM); MIC [13]: ≤ .06 µg/mL; MIC [21]: 0.125 µg/mL (≈ 0.0785 µM); MIC [16]: 0.125 µg/mL (≈ 0.0785 µM) |
